Experimental data as given in patent US12662479B2 (Foghorn Therapeutics Inc., priority 2020, dated 2026).

Legend:
[1] = molecular target: T1, HiBit-BRM fusion protein (Homo sapiens, UniProt P51531); assay: HiBiT-BRM cell-based degradation assay (Nano-Glo HiBiT Lytic Detection, 24 h); conditions: HeLa cells expressing HiBiT-BRM; for DC50: read-out: BRM HiBit Degradation IC50; for BRM HiBit Degradation Maximum measured: top dose 30 μM
T1 construct: expressed in transfected cells
In short: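 Residual HiBiT-BRM in a stable HeLa line was measured by Nano-Glo lytic luminescence after 24 h compound exposure (top final dose 30 μM, 3-fold, 10 points, duplicate). Values are % degradation, scaled between DMSO-treated cells and cells given 2 μM of a known BRM/BRG1 degrader.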

[2] = molecular target: T2, HiBit-BRG1 fusion protein (Homo sapiens, UniProt P51532); assay: HiBiT-BRG1 cell-based degradation assay (Nano-Glo HiBiT Lytic Detection, 24 h); conditions: HeLa cells expressing HiBit-BRG1 and LgBit; for DC50: read-out: BRG1 HiBit Degradation IC50; for Dmax: HeLa, top dose 30 μM, read-out: BRG1 HiBit Degradation Maximum measured
T2 construct: expressed in transfected cells
T2 sequence (P51532 whole entry, the tested form may be a part): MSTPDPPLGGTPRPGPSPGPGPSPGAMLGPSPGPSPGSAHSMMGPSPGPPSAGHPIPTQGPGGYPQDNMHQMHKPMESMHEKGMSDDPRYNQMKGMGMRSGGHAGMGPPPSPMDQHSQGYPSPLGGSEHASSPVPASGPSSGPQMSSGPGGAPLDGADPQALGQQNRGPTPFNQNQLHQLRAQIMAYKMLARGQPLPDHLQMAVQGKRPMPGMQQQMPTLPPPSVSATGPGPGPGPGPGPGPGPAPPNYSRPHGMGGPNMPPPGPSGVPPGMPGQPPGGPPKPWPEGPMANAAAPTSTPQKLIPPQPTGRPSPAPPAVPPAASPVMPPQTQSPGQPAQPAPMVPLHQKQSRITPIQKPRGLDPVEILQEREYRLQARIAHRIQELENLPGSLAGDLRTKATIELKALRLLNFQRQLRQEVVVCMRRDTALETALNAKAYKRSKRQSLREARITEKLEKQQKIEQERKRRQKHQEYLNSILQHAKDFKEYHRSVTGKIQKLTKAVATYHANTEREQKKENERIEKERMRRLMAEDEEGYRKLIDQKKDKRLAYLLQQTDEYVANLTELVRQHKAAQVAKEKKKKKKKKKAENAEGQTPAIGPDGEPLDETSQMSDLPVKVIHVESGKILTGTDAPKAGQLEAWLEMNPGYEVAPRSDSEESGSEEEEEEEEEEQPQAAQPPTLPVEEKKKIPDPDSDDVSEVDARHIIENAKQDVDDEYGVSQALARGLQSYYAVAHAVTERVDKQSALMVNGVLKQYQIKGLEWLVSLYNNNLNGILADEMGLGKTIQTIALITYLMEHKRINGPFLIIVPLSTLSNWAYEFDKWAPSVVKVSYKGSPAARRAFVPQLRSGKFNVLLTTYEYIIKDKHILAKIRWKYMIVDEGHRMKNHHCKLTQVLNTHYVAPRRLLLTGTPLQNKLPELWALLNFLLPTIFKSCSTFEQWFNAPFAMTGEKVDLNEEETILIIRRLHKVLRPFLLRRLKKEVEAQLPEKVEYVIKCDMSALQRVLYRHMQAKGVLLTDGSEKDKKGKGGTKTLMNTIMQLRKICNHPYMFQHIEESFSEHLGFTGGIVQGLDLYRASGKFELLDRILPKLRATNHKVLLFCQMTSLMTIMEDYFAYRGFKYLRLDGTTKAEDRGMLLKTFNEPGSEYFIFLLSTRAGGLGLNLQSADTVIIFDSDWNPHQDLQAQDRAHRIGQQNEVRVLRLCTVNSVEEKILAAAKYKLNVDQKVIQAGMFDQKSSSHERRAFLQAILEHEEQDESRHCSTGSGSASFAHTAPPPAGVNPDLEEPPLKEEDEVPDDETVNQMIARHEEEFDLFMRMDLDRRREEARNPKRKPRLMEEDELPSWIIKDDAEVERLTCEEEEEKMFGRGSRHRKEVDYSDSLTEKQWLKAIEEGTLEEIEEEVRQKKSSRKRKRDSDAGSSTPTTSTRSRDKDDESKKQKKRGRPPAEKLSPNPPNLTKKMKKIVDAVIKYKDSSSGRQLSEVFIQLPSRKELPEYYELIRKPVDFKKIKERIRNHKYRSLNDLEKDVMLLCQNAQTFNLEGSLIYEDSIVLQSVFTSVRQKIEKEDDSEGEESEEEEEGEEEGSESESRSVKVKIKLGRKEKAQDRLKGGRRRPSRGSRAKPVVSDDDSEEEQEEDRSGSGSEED
In short: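 Degradation is scaled from DMSO-treated cells (0%) to cells given 2 μM of a known BRM/BRG1 degrader (100%). HeLa cells stably carrying HiBiT-BRG1 plus LgBiT (5000/well) were lysed with Nano-Glo HiBiT detection reagent, shaken 10 min at RT, and luminescence read.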

T1 sequence (P51531 whole entry, the tested form may be a part): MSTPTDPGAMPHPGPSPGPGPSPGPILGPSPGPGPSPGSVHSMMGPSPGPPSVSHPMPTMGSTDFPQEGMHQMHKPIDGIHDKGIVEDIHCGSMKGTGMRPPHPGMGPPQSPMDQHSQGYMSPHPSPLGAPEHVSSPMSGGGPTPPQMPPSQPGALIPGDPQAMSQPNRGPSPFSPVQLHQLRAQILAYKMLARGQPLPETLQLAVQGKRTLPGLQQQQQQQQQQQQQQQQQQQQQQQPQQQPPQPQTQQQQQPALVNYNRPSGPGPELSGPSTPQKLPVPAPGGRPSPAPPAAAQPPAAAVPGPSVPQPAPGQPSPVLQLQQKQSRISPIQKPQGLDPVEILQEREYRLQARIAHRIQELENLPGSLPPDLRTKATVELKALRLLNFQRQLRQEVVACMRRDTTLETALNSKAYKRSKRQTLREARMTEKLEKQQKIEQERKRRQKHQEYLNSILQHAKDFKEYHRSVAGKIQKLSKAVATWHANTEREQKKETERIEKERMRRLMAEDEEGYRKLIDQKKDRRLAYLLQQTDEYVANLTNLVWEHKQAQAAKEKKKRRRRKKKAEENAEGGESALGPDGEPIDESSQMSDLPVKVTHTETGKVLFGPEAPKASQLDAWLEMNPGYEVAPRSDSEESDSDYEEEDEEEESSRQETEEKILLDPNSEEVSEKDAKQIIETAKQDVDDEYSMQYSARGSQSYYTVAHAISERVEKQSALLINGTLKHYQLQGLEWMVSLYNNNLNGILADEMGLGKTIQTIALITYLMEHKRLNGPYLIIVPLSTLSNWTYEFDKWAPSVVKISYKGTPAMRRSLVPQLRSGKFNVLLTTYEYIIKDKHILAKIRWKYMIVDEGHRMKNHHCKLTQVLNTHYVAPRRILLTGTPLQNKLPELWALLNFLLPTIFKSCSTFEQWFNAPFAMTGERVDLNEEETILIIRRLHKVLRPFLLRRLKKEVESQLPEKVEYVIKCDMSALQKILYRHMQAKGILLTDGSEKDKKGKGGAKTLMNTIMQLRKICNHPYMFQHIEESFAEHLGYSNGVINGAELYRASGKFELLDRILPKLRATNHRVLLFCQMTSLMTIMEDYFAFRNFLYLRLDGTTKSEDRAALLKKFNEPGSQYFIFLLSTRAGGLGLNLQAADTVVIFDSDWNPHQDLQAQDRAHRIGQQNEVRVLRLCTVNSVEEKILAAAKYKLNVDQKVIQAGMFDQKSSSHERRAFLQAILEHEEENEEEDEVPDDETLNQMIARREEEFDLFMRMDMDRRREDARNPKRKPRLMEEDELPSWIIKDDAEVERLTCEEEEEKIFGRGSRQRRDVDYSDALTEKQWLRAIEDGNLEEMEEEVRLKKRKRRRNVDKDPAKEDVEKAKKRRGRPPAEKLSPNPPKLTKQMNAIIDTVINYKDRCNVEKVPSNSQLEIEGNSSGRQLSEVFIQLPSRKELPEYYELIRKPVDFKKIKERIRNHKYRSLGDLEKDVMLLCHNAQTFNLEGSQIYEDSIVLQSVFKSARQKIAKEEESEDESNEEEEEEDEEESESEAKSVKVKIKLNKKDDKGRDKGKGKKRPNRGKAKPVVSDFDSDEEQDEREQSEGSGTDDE

Row | DC50 [1] | BRM HiBit Degradation Maximum measured [1] | DC50 [2] | Dmax [2] | Compound
1 | > 10 µM | C (‘C’ = Maximum degradation <50%) | > 10 µM | < 50% | Cc1ncsc1-c1ccc(CNC(=O)[C@@H]2C[C@@H](O)CN2C(=O)[C@@H](NC(=O)COCCOCCOCCNC(=O)CCCOC[C@H](NC(=O)c2ccn(S(C)(=O)=O)c2)C(=O)Nc2nc(-c3ccccc3)cs2)C(C)(C)C)cc1 [Compound 225, (2S,4R)-4-hydroxy-1-[(2S)-2-(2-[2-[2-(2-[4-[(2S)-2-[(1-methanesulfonylpyrrol-3-yl)formamido]-2-[(4-phenyl-1,3-thiazol-2-yl)carbamoyl]ethoxy]butanamido]ethoxy)ethoxy]ethoxy]acetamido)-3,3-dimethylbutanoyl]-N-[[4-(4-methyl-1,3-thiazol-5-yl)phenyl]methyl]pyrrolidine-2-carboxamide]
2 | > 10 µM | C (‘C’ = Maximum degradation <50%) | > 10 µM | < 50% | Cc1ncsc1-c1ccc(CNC(=O)[C@@H]2C[C@@H](O)CN2C(=O)[C@@H](NC(=O)CCCCCNC(=O)CCCOC[C@H](NC(=O)c2ccn(S(C)(=O)=O)c2)C(=O)Nc2nc(-c3ccccc3)cs2)C(C)(C)C)cc1 [Compound 226, (2S,4R)-4-hydroxy-1-[(2S)-2-(6-[4-[(2S)-2-[(1-methanesulfonylpyrrol-3-yl)formamido]-2-[(4-phenyl-1,3-thiazol-2-yl)carbamoyl]ethoxy]butanamido]hexanamido)-3,3-dimethylbutanoyl]-N-[[4-(4-methyl-1,3-thiazol-5-yl)phenyl]methyl]pyrrolidine-2-carboxamide]
3 | > 10 µM | C (‘C’ = Maximum degradation <50%) | > 10 µM | < 50% | Cc1ncsc1-c1ccc(CNC(=O)[C@@H]2C[C@@H](O)CN2C(=O)[C@@H](NC(=O)CCCCCCCNC(=O)CCCOC[C@H](NC(=O)c2ccn(S(C)(=O)=O)c2)C(=O)Nc2nc(-c3ccccc3)cs2)C(C)(C)C)cc1 [Compound 227, (2S,4R)-4-hydroxy-1-[(2S)-2-(8-[4-[(2S)-2-[(1-methanesulfonylpyrrol-3-yl)formamido]-2-[(4-phenyl-1,3-thiazol-2-yl)carbamoyl]ethoxy]butanamido]octanamido)-3,3-dimethylbutanoyl]-N-[[4-(4-methyl-1,3-thiazol-5-yl)phenyl]methyl]pyrrolidine-2-carboxamide]
4 | > 10 µM | C (‘C’ = Maximum degradation <50%) | > 10 µM | < 50% | CS(=O)(=O)n1ccc(C(=O)N[C@@H](COCCCC(=O)NCCOc2ccc3c(c2)C(=O)N(C2CCC(=O)NC2=O)C3=O)C(=O)Nc2nc(-c3ccccc3)cs2)c1 (some centres unmarked) [Compound 228]
5 | > 10 µM | C (‘C’ = Maximum degradation <50%) | > 10 µM | < 50% | CS(=O)(=O)n1ccc(C(=O)N[C@@H](COCCCC(=O)NCCCCNc2ccc3c(c2)C(=O)N(C2CCC(=O)NC2=O)C3=O)C(=O)Nc2nc(-c3ccccc3)cs2)c1 (stereo partly drawn) [Compound 229, N-(4-[[2-(2,6-dioxopiperidin-3-yl)-1,3-dioxoisoindol-5-yl]amino]butyl)-4-[(2S)-2-[(1-methanesulfonylpyrrol-3-yl)formamido]-2-[(4-phenyl-1,3-thiazol-2-yl)carbamoyl]ethoxy]butanamide]
6 | > 10 µM | C (‘C’ = Maximum degradation <50%) | > 10 µM | < 50% | CS(=O)(=O)n1ccc(C(=O)N[C@@H](COCCCC(=O)NCCCCCCNc2ccc3c(c2)C(=O)N(C2CCC(=O)NC2=O)C3=O)C(=O)Nc2nc(-c3ccccc3)cs2)c1 (stereo partly drawn) [Compound 230, N-(6-[[2-(2,6-dioxopiperidin-3-yl)-1,3-dioxoisoindol-5-yl]amino]hexyl)-4-[(2S)-2-[(1-methanesulfonylpyrrol-3-yl)formamido]-2-[(4-phenyl-1,3-thiazol-2-yl)carbamoyl]ethoxy]butanamide]
7 | > 10 µM | C (‘C’ = Maximum degradation <50%) | > 10 µM | < 50% | CS(=O)(=O)n1ccc(C(=O)N[C@@H](COCc2ccc(C(=O)N3CCN(CC4CN(c5ccc6c(c5)C(=O)N(C5CCC(=O)NC5=O)C6=O)C4)CC3)cc2)C(=O)Nc2nc(-c3ccccc3)cs2)c1.O=CO (stereo partly drawn) [Compound 231, (2S)-3-([4-[4-([1-[2-(2,6-dioxopiperidin-3-yl)-1,3-dioxoisoindol-5-yl]azetidin-3-yl]methyl)piperazine-1-carbonyl]phenyl]methoxy)-2-[(1-methanesulfonylpyrrol-3-yl)formamido]-N-(4-phenyl-1,3-thiazol-2-yl)propanamide; formic acid]
8 | > 10 µM | C (‘C’ = Maximum degradation <50%) | > 10 µM | < 50% | Cc1ncsc1-c1ccc(CNC(=O)[C@@H]2C[C@@H](O)CN2C(=O)[C@@H](NC(=O)CCCCCNC(=O)c2ccc(COC[C@H](NC(=O)c3ccn(S(C)(=O)=O)c3)C(=O)Nc3nc(-c4ccccc4)cs3)cc2)C(C)(C)C)cc1 [Compound 232, (2S,4R)-4-hydroxy-1-[(2S)-2-[6-[(4-[[(2S)-2-[(1-methanesulfonylpyrrol-3-yl)formamido]-2-[(4-phenyl-1,3-thiazol-2-yl)carbamoyl]ethoxy]methyl]phenyl)formamido]hexanamido]-3,3-dimethylbutanoyl]-N-[[4-(4-methyl-1,3-thiazol-5-yl)phenyl]methyl]pyrrolidine-2-carboxamide]
9 | > 10 µM | C (‘C’ = Maximum degradation <50%) | 0.1 to 1 µM | 50 to 75% | CS(=O)(=O)n1ccc(C(=O)N[C@@H](COCc2ccc(C(=O)N3CCN(CCCCCOc4ccc5c(c4)C(=O)N(C4CCC(=O)NC4=O)C5=O)CC3)cc2)C(=O)Nc2nc(-c3ccccc3)cs2)c1 (stereo partly drawn) [Compound 233, (2S)-3-([4-[4-(5-[[2-(2,6-dioxopiperidin-3-yl)-1,3-dioxoisoindol-5-yl]oxy]pentyl)piperazine-1-carbonyl]phenyl]methoxy)-2-[(1-methanesulfonylpyrrol-3-yl)formamido]-N-(4-phenyl-1,3-thiazol-2-yl)propanamide]

Row | Compound | DC50 [1] | BRM HiBit Degradation Maximum measured [1] | DC50 [2] | Dmax [2]
10 | CS(=O)(=O)n1ccc(C(=O)N[C@@H](CCOCCCC(=O)N2CC(CCOc3cccc4c3C(=O)N(C3CCC(=O)NC3=O)C4=O)C2)C(=O)Nc2nc(-c3ccccc3)cs2)c1 (stereo partly drawn) [Compound 224, (2S)-4-[4-[3-(2-[[2-(2,6-dioxopiperidin-3-yl)-1,3-dioxoisoindol-4-yl]oxy]ethyl)azetidin-1-yl]-4-oxobutoxy]-2-[(1-methanesulfonylpyrrol-3-yl)formamido]-N-(4-phenyl-1,3-thiazol-2-yl)butanamide] | > 10 µM | C (‘C’ = Maximum degradation <50%) | > 10 µM | < 50%
11 | CS(=O)(=O)n1ccc(C(=O)N[C@@H](COCc2ccc(C(=O)N3CC4(CCN(CCCNc5ccc6c(c5)C(=O)N(C5CCC(=O)NC5=O)C6=O)CC4)C3)cc2)C(=O)Nc2nc(-c3ccccc3)cs2)c1 (stereo partly drawn) [Compound 234, (2S)-3-([4-[7-(3-[[2-(2,6-dioxopiperidin-3-yl)-1,3-dioxoisoindol-5-yl]amino]propyl)-2,7-diazaspiro[3.5]nonane-2-carbonyl]phenyl]methoxy)-2-[(1-methanesulfonylpyrrol-3-yl)formamido]-N-(4-phenyl-1,3-thiazol-2-yl)propanamide] | 0.1 to 1 µM | B (‘B’ = Maximum degradation ≥50% and ≤75%) | 0.1 to 1 µM | 50 to 75%
